Laboratory results from ChEMBL document CHEMBL5131399, “Broadening antifungal spectrum and improving metabolic stablity based on a scaffold strategy: Design, synthesis, and evaluation of novel 4-phenyl-4,5-dihydrooxazole derivatives as potent fungistatic and fungicidal reagents” (Eur J Med Chem, 2022).
Values after ≈ are worked out from the molar mass of the structure shown.

Key:
Candida albicans [1] = assay: Antifungal activity against Candida albicans ATCC SC5314 assessed as fungal growth inhibition by NCCLS protocol based method; type: functional
Candida albicans [2] = assay: Antifungal activity against Candida albicans CPCC400616 assessed as fungal growth inhibition by NCCLS protocol based method; type: functional
Candida tropicalis = assay: Antifungal activity against Candida tropicalis CGMCC 2.3739 assessed as fungal growth inhibition by NCCLS protocol based method; type: functional
Cryptococcus neoformans = assay: Antifungal activity against Cryptococcus neoformans CGMCC 2.3161 assessed as fungal growth inhibition by NCCLS protocol based method; type: functional
Candida parapsilosis = assay: Antifungal activity against Candida parapsilosis GIM2.190 assessed as fungal growth inhibition by NCCLS protocol based method; type: functional; details: Lodderomyces parapsilosis
Nakaseomyces glabratus = assay: Antifungal activity against Candida glabrata clinical isolate assessed as fungal growth inhibition by NCCLS protocol based method; type: functional
Pichia kudriavzevii = assay: Antifungal activity against Candida krusei GIM2.1 assessed as fungal growth inhibition by NCCLS protocol based method; type: functional
Aspergillus fumigatus = assay: Antifungal activity against Aspergillus fumigatus CGMCC3.7795 assessed as fungal growth inhibition by NCCLS protocol based method; type: functional
Candida albicans [3] = assay: Antifungal activity against FLC-resistant Candida albicans CaR assessed as fungal growth inhibition by NCCLS protocol based method; type: functional
Candida albicans [4] = assay: Antifungal activity against FLC-resistant Candida albicans 901 assessed as fungal growth inhibition by NCCLS protocol based method; type: functional
Candida albicans [5] = assay: Antifungal activity against FLC-resistant Candida albicans 904 assessed as fungal growth inhibition by NCCLS protocol based method; type: functional
Candida albicans [6] = assay: Antifungal activity against FLC-resistant Candida albicans 632 assessed as fungal growth inhibition by NCCLS protocol based method; type: functional
Candida albicans [7] = assay: Antifungal activity against FLC-resistant Candida albicans 100 assessed as fungal growth inhibition by NCCLS protocol based method; type: functional
Candida albicans [8] = assay: Antifungal activity against FLC-resistant Candida albicans 103 assessed as fungal growth inhibition by NCCLS protocol based method; type: functional
Candida albicans [9] = assay: Antifungal activity against FLC-resistant Candida albicans 311 assessed as fungal growth inhibition by NCCLS protocol based method; type: functional
Candida albicans [10] = assay: Antibiofilm activity against FLC-resistant Candida albicans CPCC400616 assessed as assessed as inhibition of biofilm formation measured at 3 hrs by XTT reduction assay; type: functional
Candida albicans [11] = assay: Antibiofilm activity against FLC-resistant Candida albicans CPCC400616 assessed as assessed as inhibition of biofilm formation measured at 6 hrs by XTT reduction assay; type: functional
Candida albicans [12] = assay: Antibiofilm activity against FLC-resistant Candida albicans CPCC400616 assessed as assessed as inhibition of biofilm formation measured at 18 hrs by XTT reduction assay; type: functional
Candida albicans [13] = assay: Antibiofilm activity against FLC-resistant Candida albicans CPCC400616 assessed as assessed as inhibition of biofilm formation measured at 24 hrs by XTT reduction assay; type: functional
Candida albicans [14] = assay: Fungicidal activity against Candida albicans CPCC400616 assessed as minimum inhibitory concentration incubated for 48 hrs; type: functional
Candida albicans [15] = assay: Fungicidal activity against Candida albicans CPCC400616 assessed as minimum fungicidal concentration incubated for 48 hrs; type: functional
Candida albicans [16] = assay: […] for fungicidal activity against Candida albicans CPCC400616; type: functional
[17] = Cytotoxicity against human HEK293T cells assessed as inhibition of cell growth incubated for 4 hrs by MTT assay; type: toxicity, cell-based, HEK-293T
A549 = assay: Cytotoxicity against human A549 cells assessed as inhibition of cell growth incubated for 4 hrs by MTT assay; type: functional, cell-based; details: A549, 4 h
MCF7 = assay: Cytotoxicity against human MCF7 cells assessed as inhibition of cell growth incubated for 4 hrs by MTT assay; type: functional, cell-based; details: MCF7, 4 h
HepG2 = assay: Cytotoxicity against human HepG2 cells assessed as inhibition of cell growth incubated for 4 hrs by MTT assay; type: functional, cell-based; details: HepG2, 4 h
[18] = Metabolic stability in human liver microsomes assessed as half life preincubated for 10 mins followed by NADPH addition and measured after 5 to 60 mins by LC-MS/MS analysis; type: ADME, Microsome; details: time 15-70 min
[19] = Metabolic stability in human microsomes assessed as intrinsic clearance preincubated for 10 mins followed by NADPH addition and measured after 5 to 60 mins by LC-MS/MS analysis; type: ADME, Microsome; details: time 15-70 min
[20] = Metabolic stability in human liver microsomes assessed as compound remaining preincubated for 10 mins followed by NADPH addition and measured at 60 mins by LC-MS/MS analysis; type: ADME, Microsome; details: time 70 min, read-out: Stability
[21] = Stability in human plasma assessed as half life measured at 120 mins by LC/MS-MS analysis; type: ADME, cell-free
[22] = Stability in human plasma assessed as compound remaining measured at 120 mins by LC/MS-MS analysis; type: ADME, cell-free; details: read-out: Stability
[23] = Stability in human plasma assessed as compound remaining measured at 60 mins by LC/MS-MS analysis; type: ADME, cell-free; details: read-out: Stability

| SMILES | MIC (Candida albicans [1]) [µg/mL] | MIC (Candida albicans [2]) [µg/mL] | MIC (Candida tropicalis) [µg/mL] | MIC (Cryptococcus neoformans) [µg/mL] | MIC (Candida parapsilosis) [µg/mL] | MIC (Nakaseomyces glabratus) [µg/mL] | MIC (Pichia kudriavzevii) [µg/mL] | MIC (Aspergillus fumigatus) [µg/mL] | MIC (Candida albicans [3]) [µg/mL] | MIC (Candida albicans [4]) [µg/mL] | MIC (Candida albicans [5]) [µg/mL] | MIC (Candida albicans [6]) [µg/mL] | MIC (Candida albicans [7]) [µg/mL] | MIC (Candida albicans [8]) [µg/mL] | MIC (Candida albicans [9]) [µg/mL] | MIC50 (Candida albicans [10]) [µg/mL] | MIC50 (Candida albicans [11]) [µg/mL] | MIC50 (Candida albicans [12]) [µg/mL] | MIC50 (Candida albicans [13]) [µg/mL] | IC50 at 4 h [17] [µM] | other results |
| --- | --- | --- | --- | --- | --- | --- | --- | --- | --- | --- | --- | --- | --- | --- | --- | --- | --- | --- | --- | --- | --- |
| Fc1ccccc1C1(Cn2ccnc2)COC(c2ccc(-c3ccccc3)s2)=N1 (stereo not given) | 0.5 (≈ 1.24 µM) | 0.125 (≈ 0.31 µM) | 0.125 (≈ 0.31 µM) | 0.5 (≈ 1.24 µM) | 0.25 (≈ 0.62 µM) | 0.25 (≈ 0.62 µM) | 1 (≈ 2.48 µM) | 8 (≈ 19.8 µM) | 0.125 (≈ 0.31 µM) | 1 (≈ 2.48 µM) | 1 (≈ 2.48 µM) | 1 (≈ 2.48 µM) | 0.125 (≈ 0.31 µM) | 0.25 (≈ 0.62 µM) | 0.25 (≈ 0.62 µM) |  |  |  |  |  |  |
| Fc1ccc(C2(Cn3ccnc3)COC(c3ccc(-c4ccccc4)s3)=N2)cc1 (stereo not given) | 0.06 (≈ 0.149 µM) | 0.06 (≈ 0.149 µM) | 0.06 (≈ 0.149 µM) | 0.5 (≈ 1.24 µM) | 0.25 (≈ 0.62 µM) | 0.125 (≈ 0.31 µM) | 0.125 (≈ 0.31 µM) | 4 (≈ 9.91 µM) | 1 (≈ 2.48 µM) | 0.25 (≈ 0.62 µM) | 0.25 (≈ 0.62 µM) | 1 (≈ 2.48 µM) | 0.5 (≈ 1.24 µM) | 0.25 (≈ 0.62 µM) | 1 (≈ 2.48 µM) | 0.25 (≈ 0.62 µM) | 2 (≈ 4.96 µM) | 4 (≈ 9.91 µM) | 16 (≈ 39.7 µM) | 14.2 | MIC (Candida albicans [14]): 0.06 µg/mL (≈ 0.149 µM); MFC (Candida albicans [15]): 0.5 µg/mL (≈ 1.24 µM); Ratio (Candida albicans [16]): 8; IC50 (A549): > 50 µM; IC50 (MCF7): > 50 µM; IC50 (HepG2): 10.5 µM |
| Cc1ccc(C(=O)C(Cn2ccnc2)NC(=O)c2ccc(-c3ccc(Cl)cc3)s2)cc1 (stereo not given) |  |  |  |  |  |  |  |  |  |  |  |  |  |  |  |  |  |  |  |  | half-life [18]: 18.6 min; CLint [19]: 74.6 µL/min/mg; remaining at 1 h [20]: 9.3% |
| CCC(C)n1ncn(-c2ccc(N3CCN(c4ccc(OCC5COC(Cn6cncn6)(c6ccc(Cl)cc6Cl)O5)cc4)CC3)cc2)c1=O (stereo not given) [ITRACONAZOLE] | 0.03 (≈ 0.0425 µM) | 0.03 (≈ 0.0425 µM) | 0.03 (≈ 0.0425 µM) | 0.125 (≈ 0.177 µM) | 0.125 (≈ 0.177 µM) | 0.125 (≈ 0.177 µM) | 0.125 (≈ 0.177 µM) | 0.125 (≈ 0.177 µM) |  |  |  |  |  |  |  | 16 (≈ 22.7 µM) | 32 (≈ 45.3 µM) | > 64 | > 64 | > 50 | IC50 (A549): > 50 µM; IC50 (MCF7): > 50 µM; IC50 (HepG2): > 50 µM |
| OC(Cn1cncn1)(Cn1cncn1)c1ccc(F)cc1F [FLUCONAZOLE] | 0.5 (≈ 1.63 µM) | 1 (≈ 3.27 µM) | 0.5 (≈ 1.63 µM) | 4 (≈ 13.1 µM) | 2 (≈ 6.53 µM) | 4 (≈ 13.1 µM) | 8 (≈ 26.1 µM) | > 64 | > 64 | > 64 | > 64 | > 64 | > 64 | > 64 | > 64 | 32 (≈ 104 µM) | > 64 | > 64 | > 64 | > 50 | MIC (Candida albicans [14]): 0.5 µg/mL (≈ 1.63 µM); MFC (Candida albicans [15]): > 64 µg/mL; Ratio (Candida albicans [16]): > 128; IC50 (A549): > 50 µM; IC50 (MCF7): > 50 µM; IC50 (HepG2): > 50 µM |
| c1ccc(-c2ccc(C3=NC(Cn4ccnc4)(c4ccccc4)CO3)s2)cc1 (stereo not given) | 1 (≈ 2.59 µM) | 1 (≈ 2.59 µM) | 4 (≈ 10.4 µM) | 2 (≈ 5.19 µM) | 16 (≈ 41.5 µM) | 16 (≈ 41.5 µM) | 16 (≈ 41.5 µM) | 8 (≈ 20.8 µM) |  |  |  |  |  |  |  |  |  |  |  |  | half-life [21]: > 288 min; remaining at 2 h [22]: 89.5%; half-life [18]: 50.2 min; CLint [19]: 27.6 µL/min/mg; remaining at 1 h [20]: 41.3%; remaining at 1 h [23]: 93.1% |
| Cc1ccc(C2(Cn3ccnc3)COC(c3ccc(-c4ccccc4)s3)=N2)cc1 (stereo not given) | 0.125 (≈ 0.313 µM) | 0.125 (≈ 0.313 µM) | 8 (≈ 20 µM) | 0.25 (≈ 0.626 µM) | 1 (≈ 2.5 µM) | > 64 | > 64 | 16 (≈ 40 µM) | 2 (≈ 5.01 µM) | 2 (≈ 5.01 µM) | 4 (≈ 10 µM) | 16 (≈ 40 µM) | 0.5 (≈ 1.25 µM) | 4 (≈ 10 µM) | 8 (≈ 20 µM) |  |  |  |  |  |  |
| Clc1ccc(C2(Cn3ccnc3)COC(c3ccc(-c4ccccc4)s3)=N2)cc1 (stereo not given) | 0.25 (≈ 0.595 µM) | 0.25 (≈ 0.595 µM) | 0.125 (≈ 0.298 µM) | 0.5 (≈ 1.19 µM) | 2 (≈ 4.76 µM) | 16 (≈ 38.1 µM) | 16 (≈ 38.1 µM) | 8 (≈ 19.1 µM) | 1 (≈ 2.38 µM) | 0.5 (≈ 1.19 µM) | 2 (≈ 4.76 µM) | 1 (≈ 2.38 µM) | 4 (≈ 9.53 µM) | 4 (≈ 9.53 µM) | 4 (≈ 9.53 µM) |  |  |  |  |  |  |
| Cc1cccc(C2(Cn3ccnc3)COC(c3ccc(-c4ccccc4)s3)=N2)c1 (stereo not given) | 0.125 (≈ 0.313 µM) | 2 (≈ 5.01 µM) | 4 (≈ 10 µM) | 0.5 (≈ 1.25 µM) | > 64 | > 64 | > 64 | > 64 | 8 (≈ 20 µM) | 8 (≈ 20 µM) | 4 (≈ 10 µM) | 4 (≈ 10 µM) | 0.5 (≈ 1.25 µM) | 4 (≈ 10 µM) | 4 (≈ 10 µM) |  |  |  |  |  |  |
